Source: ChEMBL document CHEMBL1151464 (2008)
Converted amounts (≈) assume the structure as drawn.

Key:
Type in all cases: functional
[1] = test system: Pseudomonas aeruginosa; experiment: Antibacterial activity against Pseudomonas aeruginosa isolate 319 after 24 hrs by CLSI microdilution method
[2] = test system: Acinetobacter baumannii; experiment: Antibacterial activity against Acinetobacter baumannii isolate 889 after 24 hrs by CLSI microdilution method
[3] = test system: Pseudomonas aeruginosa; experiment: Antibacterial activity against Pseudomonas aeruginosa isolate 362 after 24 hrs by CLSI microdilution method
[4] = test system: Acinetobacter baumannii; experiment: Antibacterial activity against Acinetobacter baumannii isolate 905 after 24 hrs by CLSI microdilution method
[5] = test system: Acinetobacter baumannii; experiment: Antibacterial activity against Acinetobacter baumannii isolate 922 after 24 hrs by CLSI microdilution method
[6] = test system: Pseudomonas aeruginosa; experiment: Antibacterial activity against Pseudomonas aeruginosa isolate 376 after 24 hrs by CLSI microdilution method
[7] = test system: Acinetobacter baumannii; experiment: Antibacterial activity against Acinetobacter baumannii isolate 904 after 24 hrs by CLSI microdilution method
[8] = test system: Acinetobacter baumannii; experiment: Antibacterial activity against Acinetobacter baumannii isolate 917 after 24 hrs by CLSI microdilution method
[9] = test system: Pseudomonas aeruginosa; experiment: Antibacterial activity against Pseudomonas aeruginosa isolate 338 after 24 hrs by CLSI microdilution method
[10] = test system: Pseudomonas aeruginosa; experiment: Antibacterial activity against Pseudomonas aeruginosa isolate 349 after 24 hrs by CLSI microdilution method
[11] = test system: Acinetobacter baumannii; experiment: Antibacterial activity against Acinetobacter baumannii isolate 895 after 24 hrs by CLSI microdilution method
[12] = test system: Pseudomonas aeruginosa; experiment: Antibacterial activity against Pseudomonas aeruginosa isolate 334 after 24 hrs by CLSI microdilution method
[13] = test system: Pseudomonas aeruginosa; experiment: Antibacterial activity against Pseudomonas aeruginosa isolate 361 after 24 hrs by CLSI microdilution method
[14] = test system: Acinetobacter baumannii; experiment: Antibacterial activity against Acinetobacter baumannii isolate 897 after 24 hrs by CLSI microdilution method
[15] = test system: Acinetobacter baumannii; experiment: Antibacterial activity against Acinetobacter baumannii isolate 913 after 24 hrs by CLSI microdilution method
[16] = test system: Pseudomonas aeruginosa; experiment: Antibacterial activity against Pseudomonas aeruginosa isolate 372 after 24 hrs by CLSI microdilution method
[17] = test system: Acinetobacter baumannii; experiment: Antibacterial activity against Acinetobacter baumannii isolate 903 after 24 hrs by CLSI microdilution method
[18] = test system: Acinetobacter baumannii; experiment: Antibacterial activity against Acinetobacter baumannii isolate 927 after 24 hrs by CLSI microdilution method
[19] = test system: Acinetobacter baumannii; experiment: Antibacterial activity against Acinetobacter baumannii isolate 893 after 24 hrs by CLSI microdilution method
[20] = test system: Pseudomonas aeruginosa; experiment: Antibacterial activity against Pseudomonas aeruginosa isolate 368 after 24 hrs by CLSI microdilution method
[21] = test system: Acinetobacter baumannii; experiment: Antibacterial activity against Acinetobacter baumannii isolate 899 after 24 hrs by CLSI microdilution method
[22] = test system: Acinetobacter baumannii; experiment: Antibacterial activity against Acinetobacter baumannii isolate 910 after 24 hrs by CLSI microdilution method
[23] = test system: Acinetobacter baumannii; experiment: Antibacterial activity against Acinetobacter baumannii isolate 886 after 24 hrs by CLSI microdilution method
[24] = test system: Acinetobacter baumannii; experiment: Antibacterial activity against Acinetobacter baumannii isolate 924 after 24 hrs by CLSI microdilution method
[25] = test system: Acinetobacter baumannii; experiment: Antibacterial activity against Acinetobacter baumannii isolate 928 after 24 hrs by CLSI microdilution method
[26] = test system: Acinetobacter baumannii; experiment: Antibacterial activity against Acinetobacter baumannii isolate 919 after 24 hrs by CLSI microdilution method
[27] = test system: Acinetobacter baumannii; experiment: Antibacterial activity against Acinetobacter baumannii isolate 882 after 24 hrs by CLSI microdilution method
[28] = test system: Pseudomonas aeruginosa; experiment: Antibacterial activity against Pseudomonas aeruginosa isolate 374 after 24 hrs by CLSI microdilution method
[29] = test system: Pseudomonas aeruginosa; experiment: Antibacterial activity against Pseudomonas aeruginosa isolate 330 after 24 hrs by CLSI microdilution method
[30] = test system: Acinetobacter baumannii; experiment: Antibacterial activity against Acinetobacter baumannii isolate 901 after 24 hrs by CLSI microdilution method
[31] = test system: Acinetobacter baumannii; experiment: Antibacterial activity against Acinetobacter baumannii isolate 890 after 24 hrs by CLSI microdilution method
[32] = test system: Acinetobacter baumannii; experiment: Antibacterial activity against Acinetobacter baumannii isolate 906 after 24 hrs by CLSI microdilution method
[33] = test system: Pseudomonas aeruginosa; experiment: Antibacterial activity against Pseudomonas aeruginosa isolate 357 after 24 hrs by CLSI microdilution method
[34] = test system: Pseudomonas aeruginosa; experiment: Antibacterial activity against Pseudomonas aeruginosa isolate 364 after 24 hrs by CLSI microdilution method
[35] = test system: Pseudomonas aeruginosa; experiment: Antibacterial activity against Pseudomonas aeruginosa isolate 340 after 24 hrs by CLSI microdilution method
[36] = test system: Acinetobacter baumannii; experiment: Antibacterial activity against Acinetobacter baumannii isolate 918 after 24 hrs by CLSI microdilution method
[37] = test system: Acinetobacter baumannii; experiment: Antibacterial activity against Acinetobacter baumannii isolate 887 after 24 hrs by CLSI microdilution method
[38] = test system: Pseudomonas aeruginosa; experiment: Antibacterial activity against Pseudomonas aeruginosa isolate 322 after 24 hrs by CLSI microdilution method
[39] = test system: Pseudomonas aeruginosa; experiment: Antibacterial activity against Pseudomonas aeruginosa isolate 320 after 24 hrs by CLSI microdilution method
[40] = test system: Acinetobacter baumannii; experiment: Antibacterial activity against Acinetobacter baumannii isolate 916 after 24 hrs by CLSI microdilution method
[41] = test system: Acinetobacter baumannii; experiment: Antibacterial activity against Acinetobacter baumannii isolate 914 after 24 hrs by CLSI microdilution method
[42] = test system: Pseudomonas aeruginosa; experiment: Antibacterial activity against Pseudomonas aeruginosa isolate 335 after 24 hrs by CLSI microdilution method
[43] = test system: Acinetobacter baumannii; experiment: Antibacterial activity against Acinetobacter baumannii isolate 892 after 24 hrs by CLSI microdilution method
[44] = test system: Acinetobacter baumannii; experiment: Antibacterial activity against Acinetobacter baumannii isolate 891 after 24 hrs by CLSI microdilution method; settings: isolate 891, 24 h

Compound: COLISTIN
- MIC [1]: 2 µg/mL
- MIC [2]: 16 µg/mL
- MIC [3]: 1 µg/mL
- MIC [4]: 4 µg/mL
- MIC [5]: 4 µg/mL
- MIC [6]: 0.25 µg/mL
- MIC [7]: 16 µg/mL
- MIC [8]: 4 µg/mL
- MIC [9]: 1 µg/mL
- MIC [10]: 1 µg/mL
- MIC [11]: 2 µg/mL
- MIC [12]: 1 µg/mL
- MIC [13]: 1 µg/mL
- MIC [14]: 4 µg/mL
- MIC [15]: 0.25 µg/mL
- MIC [16]: 1 µg/mL
- MIC [17]: 0.25 µg/mL
- MIC [18]: 2 µg/mL
- MIC [19]: 0.5 µg/mL
- MIC [20]: 2 µg/mL
- MIC [21]: 32 µg/mL
- MIC [22]: 0.25 µg/mL
- MIC [23]: 1 µg/mL
- MIC [24]: 2 µg/mL
- MIC [25]: 1 µg/mL
- MIC [26]: 0.5 µg/mL
- MIC [27]: 1 µg/mL
- MIC [28]: 1 µg/mL
- MIC [29]: 1 µg/mL
- MIC [30]: 8 µg/mL
- MIC [31]: 2 µg/mL
- MIC [32]: 4 µg/mL
- MIC [33]: 2 µg/mL
- MIC [34]: 1 µg/mL
- MIC [35]: 1 µg/mL
- MIC [36]: 4 µg/mL
- MIC [37]: 16 µg/mL
- MIC [38]: 0.5 µg/mL
- MIC [39]: 1 µg/mL
- MIC [40]: 0.12 µg/mL
- MIC [41]: 2 µg/mL
- MIC [42]: 1 µg/mL
- MIC [43]: 16 µg/mL

Compound: C[C@@H](O)[C@H]1C(=O)N2C(C(=O)O)=C(S[C@@H]3CN[C@H](C(=O)N(C)C)C3)[C@H](C)[C@H]12 [MEROPENEM]
- MIC ([1]; isolate 319, 24 h): 2 µg/mL (≈ 5.22 µM)
- MIC ([2]; isolate 889, 24 h): 1 µg/mL (≈ 2.61 µM)
- MIC ([3]; isolate 362, 24 h): 0.5 µg/mL (≈ 1.3 µM)
- MIC ([4]; isolate 905, 24 h): 0.5 µg/mL (≈ 1.3 µM)
- MIC ([5]; isolate 922, 24 h): 1 µg/mL (≈ 2.61 µM)
- MIC ([6]; isolate 376, 24 h): 16 µg/mL (≈ 41.7 µM)
- MIC ([7]; isolate 904, 24 h): 2 µg/mL (≈ 5.22 µM)
- MIC ([8]; isolate 917, 24 h): 0.5 µg/mL (≈ 1.3 µM)
- MIC ([9]; isolate 338, 24 h): 1 µg/mL (≈ 2.61 µM)
- MIC ([10]; isolate 349, 24 h): 2 µg/mL (≈ 5.22 µM)
- MIC ([11]; isolate 895, 24 h): 8 µg/mL (≈ 20.9 µM)
- MIC ([12]; isolate 334, 24 h): 1 µg/mL (≈ 2.61 µM)
- MIC ([13]; isolate 361, 24 h): 0.25 µg/mL (≈ 0.652 µM)
- MIC ([14]; isolate 897, 24 h): 1 µg/mL (≈ 2.61 µM)
- MIC ([15]; isolate 913, 24 h): 0.25 µg/mL (≈ 0.652 µM)
- MIC ([16]; isolate 372, 24 h): 16 µg/mL (≈ 41.7 µM)
- MIC ([17]; isolate 903, 24 h): 1 µg/mL (≈ 2.61 µM)
- MIC ([18]; isolate 927, 24 h): 0.12 µg/mL (≈ 0.313 µM)
- MIC ([19]; isolate 893, 24 h): 2 µg/mL (≈ 5.22 µM)
- MIC ([20]; isolate 368, 24 h): 0.25 µg/mL (≈ 0.652 µM)
- MIC ([21]; isolate 899, 24 h): 32 µg/mL (≈ 83.4 µM)
- MIC ([22]; isolate 910, 24 h): 4 µg/mL (≈ 10.4 µM)
- MIC ([23]; isolate 886, 24 h): 0.5 µg/mL (≈ 1.3 µM)
- MIC ([24]; isolate 924, 24 h): 0.5 µg/mL (≈ 1.3 µM)
- MIC ([25]; isolate 928, 24 h): 2 µg/mL (≈ 5.22 µM)
- MIC ([26]; isolate 919, 24 h): 1 µg/mL (≈ 2.61 µM)
- MIC ([27]; isolate 882, 24 h): 1 µg/mL (≈ 2.61 µM)
- MIC ([28]; isolate 374, 24 h): 0.5 µg/mL (≈ 1.3 µM)
- MIC ([29]; isolate 330, 24 h): 0.5 µg/mL (≈ 1.3 µM)
- MIC ([30]; isolate 901, 24 h): 8 µg/mL (≈ 20.9 µM)
- MIC ([31]; isolate 890, 24 h): 1 µg/mL (≈ 2.61 µM)
- MIC ([32]; isolate 906, 24 h): 1 µg/mL (≈ 2.61 µM)
- MIC ([33]; isolate 357, 24 h): 0.5 µg/mL (≈ 1.3 µM)
- MIC ([34]; isolate 364, 24 h): 0.12 µg/mL (≈ 0.313 µM)
- MIC ([35]; isolate 340, 24 h): 1 µg/mL (≈ 2.61 µM)
- MIC ([36]; isolate 918, 24 h): 0.25 µg/mL (≈ 0.652 µM)
- MIC ([37]; isolate 887, 24 h): 1 µg/mL (≈ 2.61 µM)
- MIC ([38]; isolate 322, 24 h): 2 µg/mL (≈ 5.22 µM)
- MIC ([39]; isolate 320, 24 h): 2 µg/mL (≈ 5.22 µM)
- MIC ([40]; isolate 916, 24 h): 8 µg/mL (≈ 20.9 µM)
- MIC ([41]; isolate 914, 24 h): 0.5 µg/mL (≈ 1.3 µM)
- MIC ([42]; isolate 335, 24 h): 4 µg/mL (≈ 10.4 µM)
- MIC [44]: 4 µg/mL (≈ 10.4 µM)
- MIC ([43]; isolate 892, 24 h): 32 µg/mL (≈ 83.4 µM)
